In patent publication US20050069907A1, “Methods for using double-mutant RNA polymerases with reduced discrimination between non-canonical and canonical nucleoside triphosphates” (priority 2002, published 2005):
Marks after values point to notes of the source that are not given here.

What was measured:
[1] = test system: supercoiled pT75; test: rNTP/dNTP selectivity assay: labeled rNTP vs dNTP incorporation with 4 unlabeled rNTPs; assay type: biochemical
Experimental: Transcription reactions: Transcription reactions were carried out in 40 mM Tris-Cl pH 8.0, 15 mM MgCl2, and 5 mM DTT or 20 mM Manganese Citrate pH 8.0, 5 mM DTT at 37° C. Template, polymerase, and NTP concentrations were as indicated in the legends to the figures and tables. Relative activity determinations were made by taking 4 μl aliquots of reactions at 5, 10, and 20 minute time points and spotting on to DE81 filter paper. Unincorporated nucleotides were separated from incorporated nucleotides by washing the filter paper with 0.5 M KH2PO4 pH 7.0 and retained radioactive nucleotide was quantitated with a Molecular Dynamics phosphorimager. To evaluate rNTP/dNTP selectivity, reactions were run with 4 rNTPs and pT75 as template and α-P^32 rNTPs or α-P^32 dNTPs were used to label the transcripts. The relative rate of incorporation of an rNTP vs. its cognate dNTP was determined from the relative percentages of labeled rNTP vs. dNTP incorporated into DE81 retainable RNA at 5, 10, and 20 minute time points. Apparent miscoding frequencies were determined similarly, though in this instance the template was a single-stranded homopolymer and the reaction contained the complementary unlabeled rNTP, and complementary α-P^32 rNTP or one of the 3 non-complementary α-P^32 rNTPs. The relative percentages of labeled complementary vs. non-complementary rNTPs incorporated at 5, 10 and 20 minute time points gave an apparent miscoding rate. The rNTP/dNTP selectivity assay was used to test the following T7 RNAP mutants for effects on substrate discrimination: D537S, D537E, S539A, R5S1S, D552S, R627S, K631S, L637A, Y639S, Y639F, Y639A, G640A, F644A, G645A, Q649S, […], H811S, H811A, D812A, D812E, D812S, D812N, D879E+ΔF882+ΔA883, D879E+A881T+ΔA883, D879E+F884+A885, D879E+F882Y, D879E+ΔA883, D879E+F882W, D879E.
Relative selectivity of the mutant and W.T. polymerases for dNTPs and rNTPs: FIGS. 1-3 present a qualitative analysis of the structure of the transcripts produced by the W.T. and Y639F polymerases with various combinations of NTPs. […] To obtain a quantitative measure of the relative selectivity of the W.T. and mutant polymerases for dNTPs vs. rNTPs under conditions where transcript structure was not a complicating factor, reactions were carried out in which all 4 rNTPs were present but rNTPs or dNTPs were used to radiolabel the transcripts (see Table I).
Under these conditions the unlabeled rNTPs were present in vast excess relative to the labeling NTPs so labeling dNTPs are almost always incorporated adjacent to rNTPs and into transcripts of nearly uniform rNMP structure. […] This assay was used to screen our collection of T7 RNAP active site mutants for increased dNTP utilization. In this screen dATP incorporation in transcription reactions was examined with all of these mutants using supercoiled pT75 as the template, 4 cold rNTPs, and P32-rATP or P32-dATP to label. […] It has been reported that use of Mn^2+ instead of Mg^2+ decreases substrate discrimination and increases miscoding for a number of polymerases (Tabor and Richardson, 1989; Nivogi and Feldman, 1981). Therefore, the rNTP/dNTP selectivity of the mutant and W.T. enzymes were examined in Mn^2+-citrate buffer (Tabor and Richardson, 1989).

[2] = test system: poly(rC); test: Activity on an RNA (poly(rC)) template; assay type: biochemical
Experimental: T7 RNAP as a reverse transcriptase or RNA replicase which initiates de novo: It has been reported that T7 RNAP can use both RNA and DNA templates (Konarska and Sharp, 1989). Therefore, it was determined if the Y639F mutant would use dNTPs when transcribing an RNA template (poly(rC), see Table IV).
Numbers give mean and range from 3 experiments. Template was at 0.2 mg/ml, polymerases at 10^−6 M. Labeling NTPs were α-P^32 rGTP, α-P^32 dGTP.

[3] = Mg^2+ buffer, range of 2 experiments
[4] = .5 mM GTP, mean and range from 3 experiments

Substance	Relative selectivity rCTP/dCTP ([1]; Mg^2+ buffer)	Relative selectivity rGTP/dGTP ([1]; Mg^2+ buffer)	Relative selectivity rUTP/dTTP ([1]; Mg^2+ buffer)	Relative selectivity rATP/dATP [1, 3]	Relative selectivity rATP/dATP ([1]; Mn^2+ buffer)	Relative selectivity rCTP/dCTP ([1]; Mn^2+ buffer)	Relative selectivity rGTP/dGTP ([1]; Mn^2+ buffer)	Relative selectivity rUTP/dTTP ([1]; Mn^2+ buffer)	Activity on poly(rC) template ([2]; 1 mM GTP)	Activity on poly(rC) template ([2]; 1 mM dGTP + .5 mM GMP)	Activity on poly(rC) template [2, 4]	Activity on poly(rC) ([2]; dGTP or dGTP+rGMP)	Reduction in selectivity for rNTPs over dNTPs relative to W.T., on average [1] [fold]	Reduction of activity on poly(rC) ([2]; with dGTP) [fold]	Reduction of activity on poly(rC) ([2]; with dGTP+rGMP) [fold]
W.T.: wild-type T7 RNA polymerase [reference compound]	110-150	51-67	22-25	72-83 (Mg)*	6-14 (Mn)*	4.3-5.1	4.4-6.3	2.3-2.8	<.5	<.5	1000	not measurably active	–	–	–
Y639F: T7 RNAP with wild-type tyrosine at position 639 substituted by phenylalanine	2.4-2.5	.93-1.6	1.7-1.9	8.5-10 (Mg)*	.9-1.0 (Mn)*	.55-.80	.98-.99	.48-.76	62 (48-80)	116 (90-148)	505 (358-733)	–	~20	~8	~4
